Legend:
Experiment in all cases: radiometric filter-binding kinase assay, Kinase HotSpot
Settings in all cases: compound 0.5 µM; ATP 10 µM
ADRBK1 (human) = ADRBK1 (human) (UniProt P25098)
AKT2 (human) = AKT2 (human) (UniProt P31751)
AKT3 (human) = AKT3 (human) (UniProt Q9Y243)
CAMK1 (human) = CAMK1 (human) (UniProt Q14012)
CDC42BPA (human) = CDC42BPA (human) (UniProt Q5VT25)
CDK5 CDK5R1 p25 (human) = CDK5 CDK5R1 p25 (human) (UniProt Q00535+Q15078)
CDK9 CCNT1 (human) = CDK9 CCNT1 (human) (UniProt P50750+O60563)
CHUK (human) = CHUK (human) (UniProt O15111)
CLK3 (human) = CLK3 (human) (UniProt P49761)
Sequence of CLK3 (human) (P49761 whole entry, looked up): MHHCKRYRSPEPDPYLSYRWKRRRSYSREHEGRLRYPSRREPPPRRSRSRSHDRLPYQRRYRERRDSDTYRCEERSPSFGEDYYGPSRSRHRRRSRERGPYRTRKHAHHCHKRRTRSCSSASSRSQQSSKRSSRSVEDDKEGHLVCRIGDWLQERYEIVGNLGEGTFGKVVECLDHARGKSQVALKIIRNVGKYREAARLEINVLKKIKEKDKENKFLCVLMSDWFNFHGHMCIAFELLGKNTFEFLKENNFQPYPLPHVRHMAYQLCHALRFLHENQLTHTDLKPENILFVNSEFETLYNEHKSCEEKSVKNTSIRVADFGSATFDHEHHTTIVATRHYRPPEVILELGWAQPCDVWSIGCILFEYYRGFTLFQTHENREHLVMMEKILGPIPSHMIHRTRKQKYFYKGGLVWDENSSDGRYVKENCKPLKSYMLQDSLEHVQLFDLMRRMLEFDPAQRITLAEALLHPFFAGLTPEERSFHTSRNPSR

CSNK1E (human) = CSNK1E (human) (UniProt P49674)
EPHA3 (human) = EPHA3 (human) (UniProt P29320)
ERBB2 (human) = ERBB2 (human) (UniProt P04626)
Sequence of ERBB2 (human) (P04626 whole entry, looked up): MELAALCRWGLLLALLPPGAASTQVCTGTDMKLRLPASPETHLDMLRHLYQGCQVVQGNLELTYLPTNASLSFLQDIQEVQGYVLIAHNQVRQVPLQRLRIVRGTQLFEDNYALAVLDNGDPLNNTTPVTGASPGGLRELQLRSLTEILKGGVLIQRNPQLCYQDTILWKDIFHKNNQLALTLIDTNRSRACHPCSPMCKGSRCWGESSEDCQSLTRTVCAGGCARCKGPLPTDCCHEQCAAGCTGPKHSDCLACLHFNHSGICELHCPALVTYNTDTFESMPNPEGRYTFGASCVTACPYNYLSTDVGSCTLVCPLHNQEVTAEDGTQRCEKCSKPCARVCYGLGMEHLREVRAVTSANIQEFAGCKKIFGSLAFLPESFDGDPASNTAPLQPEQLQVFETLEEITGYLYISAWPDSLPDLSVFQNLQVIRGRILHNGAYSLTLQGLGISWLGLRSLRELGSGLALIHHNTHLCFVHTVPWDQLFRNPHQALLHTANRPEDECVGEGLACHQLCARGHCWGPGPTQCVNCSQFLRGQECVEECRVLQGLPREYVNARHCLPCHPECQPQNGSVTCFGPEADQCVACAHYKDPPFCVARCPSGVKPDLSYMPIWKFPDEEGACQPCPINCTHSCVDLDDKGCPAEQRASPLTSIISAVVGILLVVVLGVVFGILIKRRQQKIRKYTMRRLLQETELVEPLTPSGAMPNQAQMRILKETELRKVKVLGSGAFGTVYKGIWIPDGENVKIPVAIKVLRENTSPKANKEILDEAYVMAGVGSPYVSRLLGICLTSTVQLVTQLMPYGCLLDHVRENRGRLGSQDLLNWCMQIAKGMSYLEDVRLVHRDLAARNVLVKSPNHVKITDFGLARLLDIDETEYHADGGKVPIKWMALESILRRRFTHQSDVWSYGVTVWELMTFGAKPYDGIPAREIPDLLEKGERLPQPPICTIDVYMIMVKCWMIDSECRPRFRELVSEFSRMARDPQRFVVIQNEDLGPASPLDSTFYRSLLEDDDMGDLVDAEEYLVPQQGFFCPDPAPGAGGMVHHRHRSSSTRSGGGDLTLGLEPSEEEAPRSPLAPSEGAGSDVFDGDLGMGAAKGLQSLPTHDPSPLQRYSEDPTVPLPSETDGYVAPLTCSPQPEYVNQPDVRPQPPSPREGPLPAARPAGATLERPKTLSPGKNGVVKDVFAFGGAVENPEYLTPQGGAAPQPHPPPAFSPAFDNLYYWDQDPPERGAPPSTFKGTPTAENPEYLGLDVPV

FGFR3 (human) = FGFR3 (human) (UniProt P22607)
FYN (human) = FYN (human) (UniProt P06241)
HIPK2 (human) = HIPK2 (human) (UniProt Q9H2X6)
IGF1R (human) = IGF1R (human) (UniProt P08069)
MAP3K10 (human) = MAP3K10 (human) (UniProt Q02779)
Sequence of MAP3K10 (human) (Q02779 whole entry, looked up): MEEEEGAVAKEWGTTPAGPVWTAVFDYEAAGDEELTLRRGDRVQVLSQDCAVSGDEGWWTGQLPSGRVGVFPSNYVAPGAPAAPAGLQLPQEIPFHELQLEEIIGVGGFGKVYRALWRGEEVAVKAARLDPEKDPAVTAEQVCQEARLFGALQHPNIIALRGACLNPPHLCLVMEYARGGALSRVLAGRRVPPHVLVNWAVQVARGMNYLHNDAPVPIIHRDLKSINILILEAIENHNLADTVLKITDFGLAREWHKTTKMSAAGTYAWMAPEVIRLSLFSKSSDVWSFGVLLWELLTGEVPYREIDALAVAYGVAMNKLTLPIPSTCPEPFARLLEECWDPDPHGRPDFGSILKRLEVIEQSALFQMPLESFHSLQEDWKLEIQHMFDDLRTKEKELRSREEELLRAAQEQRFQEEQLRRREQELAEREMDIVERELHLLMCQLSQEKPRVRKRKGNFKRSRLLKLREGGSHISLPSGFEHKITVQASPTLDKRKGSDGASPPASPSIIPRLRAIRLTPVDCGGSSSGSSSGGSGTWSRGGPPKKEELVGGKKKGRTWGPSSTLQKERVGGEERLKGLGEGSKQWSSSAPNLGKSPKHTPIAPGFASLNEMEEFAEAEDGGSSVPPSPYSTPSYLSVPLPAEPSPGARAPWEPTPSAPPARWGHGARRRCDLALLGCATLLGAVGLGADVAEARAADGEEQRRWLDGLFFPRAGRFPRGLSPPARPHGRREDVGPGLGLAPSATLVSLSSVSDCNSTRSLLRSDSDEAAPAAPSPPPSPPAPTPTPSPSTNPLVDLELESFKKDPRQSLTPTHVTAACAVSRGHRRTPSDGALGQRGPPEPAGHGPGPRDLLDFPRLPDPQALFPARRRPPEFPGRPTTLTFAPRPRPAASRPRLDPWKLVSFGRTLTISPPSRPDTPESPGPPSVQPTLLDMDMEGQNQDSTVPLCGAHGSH

MAP4K5 (human) = MAP4K5 (human) (UniProt Q9Y4K4)
MAPK11 (human) = MAPK11 (human) (UniProt Q15759)
MAPK12 (human) = MAPK12 (human) (UniProt P53778)
MAPK13 (human) = MAPK13 (human) (UniProt O15264)
MAPK3 (human) = MAPK3 (human) (UniProt P27361)
MARK4 (human) = MARK4 (human) (UniProt Q96L34)
NTRK1 (human) = NTRK1 (human) (UniProt P04629)
NTRK2 (human) = NTRK2 (human) (UniProt Q16620)
Sequence of NTRK2 (human) (Q16620 whole entry, looked up): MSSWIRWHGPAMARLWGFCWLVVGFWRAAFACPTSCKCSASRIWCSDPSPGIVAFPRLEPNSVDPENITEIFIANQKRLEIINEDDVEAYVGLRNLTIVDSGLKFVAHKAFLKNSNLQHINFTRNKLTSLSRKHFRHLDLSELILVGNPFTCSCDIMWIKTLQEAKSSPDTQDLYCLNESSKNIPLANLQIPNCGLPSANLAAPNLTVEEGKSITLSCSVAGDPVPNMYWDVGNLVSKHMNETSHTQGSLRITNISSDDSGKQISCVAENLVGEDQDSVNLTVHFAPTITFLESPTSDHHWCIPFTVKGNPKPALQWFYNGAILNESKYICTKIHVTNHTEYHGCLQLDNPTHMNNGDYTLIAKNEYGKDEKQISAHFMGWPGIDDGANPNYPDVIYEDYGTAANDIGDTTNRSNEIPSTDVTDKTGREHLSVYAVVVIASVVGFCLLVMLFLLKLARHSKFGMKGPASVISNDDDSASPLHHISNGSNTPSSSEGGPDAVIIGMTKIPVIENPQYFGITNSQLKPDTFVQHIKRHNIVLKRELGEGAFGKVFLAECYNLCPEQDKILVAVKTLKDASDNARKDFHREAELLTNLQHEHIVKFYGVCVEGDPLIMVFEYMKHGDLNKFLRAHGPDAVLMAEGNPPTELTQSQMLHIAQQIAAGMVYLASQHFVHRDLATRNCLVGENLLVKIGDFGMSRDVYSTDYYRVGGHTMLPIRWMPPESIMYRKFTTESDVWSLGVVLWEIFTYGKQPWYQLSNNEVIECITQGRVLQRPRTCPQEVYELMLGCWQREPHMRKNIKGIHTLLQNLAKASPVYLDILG

NTRK3 (human) = NTRK3 (human) (UniProt Q16288)
NUAK1 (human) = NUAK1 (human) (UniProt O60285)
PAK4 (human) = PAK4 (human) (UniProt O96013)
PIM2 (human) = PIM2 (human) (UniProt Q9P1W9)
PLK1 (human) = PLK1 (human) (UniProt P53350)
Sequence of PLK1 (human) (P53350 whole entry, looked up): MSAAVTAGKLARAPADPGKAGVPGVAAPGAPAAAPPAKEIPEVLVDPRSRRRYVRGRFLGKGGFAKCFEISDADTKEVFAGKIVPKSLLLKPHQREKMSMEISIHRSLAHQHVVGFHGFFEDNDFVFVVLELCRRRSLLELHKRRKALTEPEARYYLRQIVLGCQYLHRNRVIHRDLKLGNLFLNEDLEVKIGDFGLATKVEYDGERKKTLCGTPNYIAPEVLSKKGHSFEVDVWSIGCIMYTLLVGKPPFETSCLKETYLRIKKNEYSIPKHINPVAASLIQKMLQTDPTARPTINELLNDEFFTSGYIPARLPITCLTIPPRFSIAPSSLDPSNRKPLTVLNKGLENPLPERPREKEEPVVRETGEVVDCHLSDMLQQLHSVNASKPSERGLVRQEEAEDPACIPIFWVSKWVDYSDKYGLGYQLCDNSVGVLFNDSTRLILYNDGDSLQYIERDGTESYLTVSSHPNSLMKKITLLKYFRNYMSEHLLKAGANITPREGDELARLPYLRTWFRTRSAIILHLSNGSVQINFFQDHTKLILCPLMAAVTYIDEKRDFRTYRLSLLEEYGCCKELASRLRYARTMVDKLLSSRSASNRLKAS

PRKCA (human) = PRKCA (human) (UniProt P17252)
PRKCH (human) = PRKCH (human) (UniProt P24723)
PRKCI (human) = PRKCI (human) (UniProt P41743)
PRKX (human) = PRKX (human) (UniProt P51817)
PTK2 (human) = PTK2 (human) (UniProt Q05397)
RIPK2 (human) = RIPK2 (human) (UniProt O43353)
RPS6KA1 KD1 KD2 (human) = RPS6KA1 KD1 KD2 (human) (UniProt Q15418)
STK17A (human) = STK17A (human) (UniProt Q9UEE5)
Sequence of STK17A (human) (Q9UEE5 whole entry, looked up): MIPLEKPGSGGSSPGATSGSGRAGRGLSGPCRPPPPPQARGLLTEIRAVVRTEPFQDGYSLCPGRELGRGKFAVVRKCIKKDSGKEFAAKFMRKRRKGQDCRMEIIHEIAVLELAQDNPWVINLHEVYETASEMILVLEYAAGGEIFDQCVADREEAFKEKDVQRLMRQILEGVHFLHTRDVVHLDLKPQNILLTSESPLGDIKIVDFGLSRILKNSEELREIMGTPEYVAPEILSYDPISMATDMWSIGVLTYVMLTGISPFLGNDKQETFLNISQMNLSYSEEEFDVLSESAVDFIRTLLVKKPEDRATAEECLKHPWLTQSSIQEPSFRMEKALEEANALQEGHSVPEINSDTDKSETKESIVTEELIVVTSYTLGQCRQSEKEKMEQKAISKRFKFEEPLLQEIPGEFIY

TBK1 (human) = TBK1 (human) (UniProt Q9UHD2)
TSSK2 (human) = TSSK2 (human) (UniProt Q96PF2)
Sequence of TSSK2 (human) (Q96PF2 whole entry, looked up): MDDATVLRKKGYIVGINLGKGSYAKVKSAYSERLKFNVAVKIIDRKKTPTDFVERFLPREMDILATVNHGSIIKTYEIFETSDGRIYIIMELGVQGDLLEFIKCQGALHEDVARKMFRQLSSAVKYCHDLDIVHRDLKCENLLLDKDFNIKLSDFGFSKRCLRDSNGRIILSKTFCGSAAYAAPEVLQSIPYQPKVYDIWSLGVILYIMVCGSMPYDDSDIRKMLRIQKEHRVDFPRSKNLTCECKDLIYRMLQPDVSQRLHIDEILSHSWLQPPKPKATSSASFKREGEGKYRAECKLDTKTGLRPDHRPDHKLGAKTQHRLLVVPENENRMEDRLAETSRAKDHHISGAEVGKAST

[1] = target: TYK2 JH1 catalytic (human) (UniProt P29597)
WNK3 (human) = WNK3 (human) (UniProt Q9BYP7)

SMILES: COc1ccc(-c2cnc3c(-c4ccsc4)cnn3c2)cc1
- residual activity (ADRBK1 (human)): 100%
- residual activity (AKT2 (human)): 93.3%
- residual activity (AKT3 (human)): 95.4%
- residual activity (CAMK1 (human)): 104%
- residual activity (CDC42BPA (human)): 86.8%
- residual activity (CDK5 CDK5R1 p25 (human)): 73%
- residual activity (CDK9 CCNT1 (human)): 73.8%
- residual activity (CHUK (human)): 94.5%
- residual activity (CLK3 (human)): 100%
- residual activity (CSNK1E (human)): 86.3%
- residual activity (EPHA3 (human)): 93.4%
- residual activity (ERBB2 (human)): 102%
- residual activity (FGFR3 (human)): 81.5%
- residual activity (FYN (human)): 86.3%
- residual activity (HIPK2 (human)): 91.2%
- residual activity (IGF1R (human)): 91.3%
- residual activity (MAP3K10 (human)): 94.2%
- residual activity (MAP4K5 (human)): 60.3%
- residual activity (MAPK11 (human)): 84.1%
- residual activity (MAPK12 (human)): 94.8%
- residual activity (MAPK13 (human)): 93.5%
- residual activity (MAPK3 (human)): 99.5%
- residual activity (MARK4 (human)): 92.7%
- residual activity (NTRK1 (human)): 93.2%
- residual activity (NTRK2 (human)): 82.9%
- residual activity (NTRK3 (human)): 49.8%
- residual activity (NUAK1 (human)): 77.9%
- residual activity (PAK4 (human)): 72.5%
- residual activity (PIM2 (human)): 105%
- residual activity (PLK1 (human)): 101%
- residual activity (PRKCA (human)): 101%
- residual activity (PRKCH (human)): 111%
- residual activity (PRKCI (human)): 96.2%
- residual activity (PRKX (human)): 89.5%
- residual activity (PTK2 (human)): 93%
- residual activity (RIPK2 (human)): 56.8%
- residual activity (RPS6KA1 KD1 KD2 (human)): 85.7%
- residual activity (STK17A (human)): 91.6%
- residual activity (TBK1 (human)): 77.7%
- residual activity (TSSK2 (human)): 99%
- residual activity [1]: 86.1%
- residual activity (WNK3 (human)): 92.7%

SMILES: CCCNC(=O)Nc1ccc(Oc2ncnc3cc(OC)c(OC)cc23)cc1Cl
- residual activity (ADRBK1 (human)): 103%
- residual activity (AKT2 (human)): 89.7%
- residual activity (AKT3 (human)): 88.9%
- residual activity (CAMK1 (human)): 96.7%
- residual activity (CDC42BPA (human)): 77.8%
- residual activity (CDK5 CDK5R1 p25 (human)): 95.7%
- residual activity (CDK9 CCNT1 (human)): 98%
- residual activity (CHUK (human)): 84.9%
- residual activity (CLK3 (human)): 98.8%
- residual activity (CSNK1E (human)): 78.5%
- residual activity (EPHA3 (human)): 98.5%
- residual activity (ERBB2 (human)): 116%
- residual activity (FGFR3 (human)): 84.5%
- residual activity (FYN (human)): 92.7%
- residual activity (HIPK2 (human)): 97.9%
- residual activity (IGF1R (human)): 77%
- residual activity (MAP3K10 (human)): 103%
- residual activity (MAP4K5 (human)): 54.6%
- residual activity (MAPK11 (human)): 88.5%
- residual activity (MAPK12 (human)): 61.9%
- residual activity (MAPK13 (human)): 100%
- residual activity (MAPK3 (human)): 105%
- residual activity (MARK4 (human)): 110%
- residual activity (NTRK1 (human)): 93.2%
- residual activity (NTRK2 (human)): 102%
- residual activity (NTRK3 (human)): 89%
- residual activity (NUAK1 (human)): 92.3%
- residual activity (PAK4 (human)): 95.7%
- residual activity (PIM2 (human)): 101%
- residual activity (PLK1 (human)): 101%
- residual activity (PRKCA (human)): 99.3%
- residual activity (PRKCH (human)): 101%
- residual activity (PRKCI (human)): 93%
- residual activity (PRKX (human)): 100%
- residual activity (PTK2 (human)): 99.6%
- residual activity (RIPK2 (human)): 84.8%
- residual activity (RPS6KA1 KD1 KD2 (human)): 92.3%
- residual activity (STK17A (human)): 99%
- residual activity (TBK1 (human)): 90%
- residual activity (TSSK2 (human)): 98.7%
- residual activity [1]: 95.2%
- residual activity (WNK3 (human)): 93.8%

SMILES: O=c1cc(-c2cccc3c2Sc2ccccc2S3)oc(N2CCOCC2)c1
- residual activity (ADRBK1 (human)): 79%
- residual activity (AKT2 (human)): 96%
- residual activity (AKT3 (human)): 109%
- residual activity (CAMK1 (human)): 94.2%
- residual activity (CDC42BPA (human)): 106%
- residual activity (CDK5 CDK5R1 p25 (human)): 96.8%
- residual activity (CDK9 CCNT1 (human)): 100%
- residual activity (CHUK (human)): 87.4%
- residual activity (CLK3 (human)): 121%
- residual activity (CSNK1E (human)): 104%
- residual activity (EPHA3 (human)): 119%
- residual activity (ERBB2 (human)): 97.3%
- residual activity (FGFR3 (human)): 94.7%
- residual activity (FYN (human)): 88.6%
- residual activity (HIPK2 (human)): 105%
- residual activity (IGF1R (human)): 98.2%
- residual activity (MAP3K10 (human)): 95.9%
- residual activity (MAP4K5 (human)): 93.6%
- residual activity (MAPK11 (human)): 102%
- residual activity (MAPK12 (human)): 114%
- residual activity (MAPK13 (human)): 101%
- residual activity (MAPK3 (human)): 118%
- residual activity (MARK4 (human)): 100%
- residual activity (NTRK1 (human)): 99.4%
- residual activity (NTRK2 (human)): 99.1%
- residual activity (NTRK3 (human)): 99.7%
- residual activity (NUAK1 (human)): 93.1%
- residual activity (PAK4 (human)): 116%
- residual activity (PIM2 (human)): 118%
- residual activity (PLK1 (human)): 102%
- residual activity (PRKCA (human)): 80.3%
- residual activity (PRKCH (human)): 99.7%
- residual activity (PRKCI (human)): 103%
- residual activity (PRKX (human)): 113%
- residual activity (PTK2 (human)): 113%
- residual activity (RIPK2 (human)): 114%
- residual activity (RPS6KA1 KD1 KD2 (human)): 97.6%
- residual activity (STK17A (human)): 98.2%
- residual activity (TBK1 (human)): 88.5%
- residual activity (TSSK2 (human)): 97.7%
- residual activity [1]: 95.8%
- residual activity (WNK3 (human)): 109%

SMILES: Clc1ccc(Nc2nnc(Cc3ccncc3)c3ccccc23)cc1
- residual activity (ADRBK1 (human)): 102%
- residual activity (AKT2 (human)): 104%
- residual activity (AKT3 (human)): 89.9%
- residual activity (CAMK1 (human)): 100%
- residual activity (CDC42BPA (human)): 78.3%
- residual activity (CDK5 CDK5R1 p25 (human)): 91.3%
- residual activity (CDK9 CCNT1 (human)): 94.9%
- residual activity (CHUK (human)): 104%
- residual activity (CLK3 (human)): 105%
- residual activity (CSNK1E (human)): 99.1%
- residual activity (EPHA3 (human)): 98.8%
- residual activity (ERBB2 (human)): 101%
- residual activity (FGFR3 (human)): 91.5%
- residual activity (FYN (human)): 104%
- residual activity (HIPK2 (human)): 101%
- residual activity (IGF1R (human)): 108%
- residual activity (MAP3K10 (human)): 110%
- residual activity (MAP4K5 (human)): 101%
- residual activity (MAPK11 (human)): 96.9%
- residual activity (MAPK12 (human)): 96.8%
- residual activity (MAPK13 (human)): 88.9%
- residual activity (MAPK3 (human)): 94.7%
- residual activity (MARK4 (human)): 104%
- residual activity (NTRK1 (human)): 98.7%
- residual activity (NTRK2 (human)): 102%
- residual activity (NTRK3 (human)): 92.7%
- residual activity (NUAK1 (human)): 112%
- residual activity (PAK4 (human)): 95.8%
- residual activity (PIM2 (human)): 95.8%
- residual activity (PLK1 (human)): 95.9%
- residual activity (PRKCA (human)): 75.8%
- residual activity (PRKCH (human)): 105%
- residual activity (PRKCI (human)): 94.2%
- residual activity (PRKX (human)): 152%
- residual activity (PTK2 (human)): 101%
- residual activity (RIPK2 (human)): 111%
- residual activity (RPS6KA1 KD1 KD2 (human)): 113%
- residual activity (STK17A (human)): 99.4%
- residual activity (TBK1 (human)): 104%
- residual activity (TSSK2 (human)): 82.8%
- residual activity [1]: 89.4%
- residual activity (WNK3 (human)): 99.1%
